Legend:
VIM-1 = VIM-1 (Pseudomonas aeruginosa (strain ATCC 15692 / DSM 22644 / CIP 104116 / JCM 14847 / LMG 12228 / 1C / PRS 101 / PAO1), UniProt A0A0F7KYQ8); experiment: biochemical; conditions: CCF2-FA fluorescence assay, 2 hours at 25° C.; read-out: VIM1 IC50
In short: (§1)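 Metallo-β-lactamase activity read by fluorescence against CCF2-FA (1.25 μM final) in 100 mM KH2PO4 pH 7 with 0.005% Tween-20 and 10 μM ZnSO4; enzyme final at 1 pM NDM-1, 2 pM IMP-1 or 30 pM VIM-1. Inhibitor at 20 to 0.00063 μM, 2 h at 25° C; IC50 by 4-parameter fit.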

IMP-1 = IMP-1 (Serratia marcescens, UniProt P52699); experiment: biochemical; conditions: CCF2-FA fluorescence assay, 2 hours at 25° C.; read-out: IMP1 IC50
In short: as §1

[1] = tested on: Escherichia coli expressing NDM-1 (CLB30016); type: cell-based; conditions: with imipenem 1 μg/ml; 95% inhibition of bacterial growth
In short: (§2)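 Clinical MBL-producing strains were grown overnight at 35 °C on blood agar, suspended in saline, diluted 1:100 into 1.1× CAMHB and exposed to test compound with imipenem at 1 μg/ml. After 22–24 h at 35 °C, absorbance gave MITC95: lowest compound concentration inhibiting 95% of growth.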

[2] = tested on: Serratia marcescens expressing IMP-1 (CL5741); type: cell-based; conditions: with imipenem 1 μg/ml; 95% inhibition of bacterial growth
In short: as §2

[3] = tested on: Klebsiella pneumoniae expressing VIM-1 (IHMA599644); type: cell-based; conditions: with imipenem 1 μg/ml; 95% inhibition of bacterial growth
In short: as §2

VIM-2 = VIM-2 (Escherichia coli, UniProt Q5U7L7); experiment: biochemical; conditions: CCF2-FA fluorescence assay; read-out: VIM2 IC50
[4] = tested on: P. aeruginosa MB9799 (efflux-, IMP-1 plasmid); type: cell-based, Pseudomonas aeruginosa; conditions: efflux − (MB9799) strain; imipenem at 2 μg/mL; in the presence of a class A, C, D serine β-lactamase inhibitor closely related to relebactam
In short: (§3)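 Isogenic P. aeruginosa PAO1 strains (efflux+ and multiple-efflux-pump-disrupted) carrying plasmid IMP-1, with inducible AmpC, tested by broth microdilution. Imipenem and/or ceftazidime fixed, usually at CLSI breakpoint, plus fixed class A/C β-lactamase inhibitor; titrated MBL inhibitor concentration restoring susceptibility recorded and compared between strains as efflux fold difference.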

NDM-1 = NDM-1 (Klebsiella pneumoniae, UniProt C7C422); experiment: biochemical; type: biochemical; conditions: CCF2-FA fluorescence assay, 2 hours at 25° C.
In short: as §1

[5] = tested on: P. aeruginosa MB9798 (efflux+, IMP-1 plasmid); conditions: for MB9798 MITC95 P. aeruginosa uM Efflux WT: efflux + (MB9798) strain, imipenem at 2 μg/mL, in the presence of a class A, C, D serine β-lactamase inhibitor closely related to relebactam; for Efflux ratio: fold difference between efflux+ (MB9798) and efflux− (MB9799) strains
In short: as §3

Sequence of IMP-1 (P52699 whole entry, looked up, species assumed): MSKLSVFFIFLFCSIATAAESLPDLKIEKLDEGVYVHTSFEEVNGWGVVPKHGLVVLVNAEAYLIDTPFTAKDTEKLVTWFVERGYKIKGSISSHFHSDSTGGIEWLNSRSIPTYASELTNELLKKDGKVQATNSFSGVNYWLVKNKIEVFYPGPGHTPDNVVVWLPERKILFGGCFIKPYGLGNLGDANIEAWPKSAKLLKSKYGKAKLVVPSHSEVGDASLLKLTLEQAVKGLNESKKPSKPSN
Sequence of NDM-1 (C7C422 whole entry, looked up, species assumed): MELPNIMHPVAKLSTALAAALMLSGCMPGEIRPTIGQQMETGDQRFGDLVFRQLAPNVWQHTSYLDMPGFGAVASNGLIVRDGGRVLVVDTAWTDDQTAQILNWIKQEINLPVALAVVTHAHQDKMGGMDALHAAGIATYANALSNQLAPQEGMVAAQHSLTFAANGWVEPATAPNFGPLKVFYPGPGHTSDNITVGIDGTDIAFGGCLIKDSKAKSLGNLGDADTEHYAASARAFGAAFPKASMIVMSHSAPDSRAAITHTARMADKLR

SMILES: N[C@@H]1CCCN(c2ccc(S(=O)(=O)N[C@@H]3CCNC3)c(S(N)(=O)=O)c2-c2nnn[nH]2)C1 [Example 86, 4-[(3R)-3-aminopiperidin-1-yl]-N1-[(3R)-pyrrolidin-3-yl]-3-(1H-tetrazol-5-yl)benzene-1,2-disulfonamide]
- IC50 (VIM-1): 3.83 nM
- IC50 (IMP-1): 58.8 nM
- CLB30016 E. coli MITC95 NDM [1]: 0.39 µM
- CL5741 S. marcescens MITC95 IMP [2]: 1.56 µM
- IHMA599644 K. pneumoniae MITC95 VIM [3]: 1.56 µM
- IC50 (VIM-2): 14 nM
- MB9799 MITC95 P. aeruginosa uM Efflux Mutant [4]: 1.56 µM
- IC50 (NDM-1): 1.37 nM
- MB9798 MITC95 P. aeruginosa uM Efflux WT [5]: 12.50 µM
- Efflux ratio [5]: 8.00

SMILES: NCC1CCN(c2ccc(S(=O)(=O)NC[C@@H](O)CN)c(S(N)(=O)=O)c2-c2nnn[nH]2)CC1 [Example 37, (S)-N1-(3-amino-2-hydroxypropyl)-4-(4-(aminomethyl)piperidin-1-yl)-3-(1H-tetrazol-5-yl)benzene-1,2-disulfonamide]
- IC50 (VIM-1): 0.11 nM
- IC50 (IMP-1): 3.04 nM
- CLB30016 E. coli MITC95 NDM [1]: 0.39 µM
- CL5741 S. marcescens MITC95 IMP [2]: 0.78 µM
- IHMA599644 K. pneumoniae MITC95 VIM [3]: 0.78 µM
- IC50 (VIM-2): 2.07 nM
- MB9799 MITC95 P. aeruginosa uM Efflux Mutant [4]: 0.78 µM
- IC50 (NDM-1): 1.29 nM
- MB9798 MITC95 P. aeruginosa uM Efflux WT [5]: 0.78 µM
- Efflux ratio [5]: 1.00

SMILES: NC[C@@H](O)CNS(=O)(=O)c1ccc(N2CCC(C3COC(=O)N3)CC2)c(-c2nn[nH]n2)c1S(N)(=O)=O (stereo partly drawn) [Example 177, N1-((R)-3-amino-2-hydroxypropyl)-4-(4-(2-oxooxazolidin-4-yl)piperidin-1-yl)-3-(2H-tetrazol-5-yl)benzene-1,2-disulfonamide]
- IC50 (VIM-1): 0.15 nM
- IC50 (IMP-1): 0.19 nM
- CLB30016 E. coli MITC95 NDM [1]: 6.25 µM
- CL5741 S. marcescens MITC95 IMP [2]: 3.13 µM
- IHMA599644 K. pneumoniae MITC95 VIM [3]: 6.25 µM
- IC50 (VIM-2): 0.66 nM
- MB9799 MITC95 P. aeruginosa uM Efflux Mutant [4]: 1.56 µM
- IC50 (NDM-1): 0.57 nM
- MB9798 MITC95 P. aeruginosa uM Efflux WT [5]: 1.56 µM
- Efflux ratio [5]: 1.00

SMILES: CN(C)[C@@H]1CCN(c2ccc(S(=O)(=O)N[C@@H]3CCNC3)c(S(N)(=O)=O)c2-c2nnn[nH]2)C1 [Example 68, 4-[(3R)-3-(dimethylamino)pyrrolidin-1-yl]-N1-[(3R)-pyrrolidin-3-yl]-3-(1H-tetrazol-5-yl)benzene-1,2-disulfonamide]
- IC50 (VIM-1): 2.11 nM
- IC50 (IMP-1): 16.2 nM
- CLB30016 E. coli MITC95 NDM [1]: 0.78 µM
- CL5741 S. marcescens MITC95 IMP [2]: 1.56 µM
- IHMA599644 K. pneumoniae MITC95 VIM [3]: 1.56 µM
- IC50 (VIM-2): 17.8 nM
- MB9799 MITC95 P. aeruginosa uM Efflux Mutant [4]: 1.56 µM
- IC50 (NDM-1): 22.1 nM
- MB9798 MITC95 P. aeruginosa uM Efflux WT [5]: 12.50 µM
- Efflux ratio [5]: 8.00

SMILES: NCCC1CCN(c2ccc(S(=O)(=O)N[C@H](CN)CO)c(S(N)(=O)=O)c2-c2nn[nH]n2)CC1 [Example 188, (R)-N1-(1-amino-3-hydroxypropan-2-yl)-4-(4-(2-aminoethyl)piperidin-1-yl)-3-(2H-tetrazol-5-yl)benzene-1,2-disulfonamide]
- IC50 (VIM-1): 0.13 nM
- IC50 (IMP-1): 3.68 nM
- CLB30016 E. coli MITC95 NDM [1]: 0.78 µM
- CL5741 S. marcescens MITC95 IMP [2]: 0.78 µM
- IHMA599644 K. pneumoniae MITC95 VIM [3]: 1.56 µM
- IC50 (VIM-2): 4.85 nM
- MB9799 MITC95 P. aeruginosa uM Efflux Mutant [4]: 0.78 µM
- IC50 (NDM-1): 2.86 nM
- MB9798 MITC95 P. aeruginosa uM Efflux WT [5]: 0.78 µM
- Efflux ratio [5]: 1.00

SMILES: NS(=O)(=O)c1c(S(=O)(=O)N[C@@H]2CCNC2)ccc(N2CC[C@H](O)C2)c1-c1nnn[nH]1 [Example 97, 4-[(3S)-3-hydroxypyrrolidin-1-yl]-N1-[(3R)-pyrrolidin-3-yl]-3-(1H-tetrazol-5-yl)benzene-1,2-disulfonamide]
- IC50 (VIM-1): 2.49 nM
- IC50 (IMP-1): 11.6 nM
- CLB30016 E. coli MITC95 NDM [1]: 3.13 µM
- CL5741 S. marcescens MITC95 IMP [2]: 6.25 µM
- IHMA599644 K. pneumoniae MITC95 VIM [3]: 12.50 µM
- IC50 (VIM-2): 4.43 nM
- MB9799 MITC95 P. aeruginosa uM Efflux Mutant [4]: 3.13 µM
- IC50 (NDM-1): 6.21 nM
- MB9798 MITC95 P. aeruginosa uM Efflux WT [5]: 6.25 µM
- Efflux ratio [5]: 2.00

SMILES: NS(=O)(=O)c1c(S(=O)(=O)N[C@@H]2CCNC2)ccc(N2CCC(Cc3ccccn3)CC2)c1-c1nnn[nH]1 [Example 106, 4-[4-(pyridin-2-ylmethyl)piperidin-1-yl]-N1-[(3R)-pyrrolidin-3-yl]-3-(1H-tetrazol-5-yl)benzene-1,2-disulfonamide]
- IC50 (VIM-1): 0.1 nM
- IC50 (IMP-1): 0.12 nM
- CLB30016 E. coli MITC95 NDM [1]: 6.25 µM
- CL5741 S. marcescens MITC95 IMP [2]: 3.13 µM
- IHMA599644 K. pneumoniae MITC95 VIM [3]: 6.25 µM
- IC50 (VIM-2): 0.46 nM
- MB9799 MITC95 P. aeruginosa uM Efflux Mutant [4]: 3.13 µM
- IC50 (NDM-1): 0.06 nM
- MB9798 MITC95 P. aeruginosa uM Efflux WT [5]: 50.00 µM
- Efflux ratio [5]: 16.00

SMILES: NS(=O)(=O)c1c(S(=O)(=O)N[C@@H]2CCNC2)ccc(N2CCC3(CC2)CNC3)c1-c1nnn[nH]1 [Example 52, (R)-N1-(pyrrolidin-3-yl)-4-(2,7-diazaspiro[3.5]no-nan-7-yl)-3-(1H-tetrazol-5-yl)benzene-1,2-disulfonamide]
- IC50 (VIM-1): 0.5 nM
- IC50 (IMP-1): 3.06 nM
- CLB30016 E. coli MITC95 NDM [1]: 0.78 µM
- CL5741 S. marcescens MITC95 IMP [2]: 1.56 µM
- IHMA599644 K. pneumoniae MITC95 VIM [3]: 1.56 µM
- IC50 (VIM-2): 8.18 nM
- MB9799 MITC95 P. aeruginosa uM Efflux Mutant [4]: 0.78 µM
- IC50 (NDM-1): 0.48 nM
- MB9798 MITC95 P. aeruginosa uM Efflux WT [5]: 0.78 µM
- Efflux ratio [5]: 1.00

SMILES: NC[C@@H](O)CNS(=O)(=O)c1ccc(N2CCCN(CCO)CC2)c(-c2nn[nH]n2)c1S(N)(=O)=O [Example 23, (R)-N^1-(3-amino-2-hydroxypropyl)-4-(4-(2-hydroxyethyl)-1,4-diazepan-1-yl)-3-(2H-tetrazol-5-yl)benzene-1,2-disulfonamide]
- IC50 (VIM-1): 1.48 nM
- IC50 (IMP-1): 40.5 nM
- CLB30016 E. coli MITC95 NDM [1]: 0.39 µM
- CL5741 S. marcescens MITC95 IMP [2]: 1.56 µM
- IHMA599644 K. pneumoniae MITC95 VIM [3]: 0.78 µM
- IC50 (VIM-2): 10 nM
- MB9799 MITC95 P. aeruginosa uM Efflux Mutant [4]: 1.56 µM
- IC50 (NDM-1): 19.7 nM
- MB9798 MITC95 P. aeruginosa uM Efflux WT [5]: 3.13 µM
- Efflux ratio [5]: 2.00

SMILES: NS(=O)(=O)c1c(S(=O)(=O)N[C@@H]2CCNC2)ccc(N2CCCC(O)C2=O)c1-c1nn[nH]n1 (stereo partly drawn) [Example 148, 4-(3-hydroxy-2-oxopiperidin-1-yl)-N1-((R)-pyrrolidin-3-yl)-3-(2H-tetrazol-5-yl)benzene-1,2-disulfonamide]
- IC50 (VIM-1): 0.35 nM
- IC50 (IMP-1): 28.1 nM
- CLB30016 E. coli MITC95 NDM [1]: 0.39 µM
- CL5741 S. marcescens MITC95 IMP [2]: 1.56 µM
- IHMA599644 K. pneumoniae MITC95 VIM [3]: 3.13 µM
- IC50 (VIM-2): 1.5 nM
- MB9799 MITC95 P. aeruginosa uM Efflux Mutant [4]: 1.56 µM
- IC50 (NDM-1): 0.76 nM
- MB9798 MITC95 P. aeruginosa uM Efflux WT [5]: 3.13 µM
- Efflux ratio [5]: 2.00

SMILES: NC[C@@H](O)CNS(=O)(=O)c1ccc(N2CCC[C@H](CN)C2)c(-c2nnn[nH]2)c1S(N)(=O)=O [Example 39, N1-((R)-3-amino-2-hydroxypropyl)-4-((R)-3-(aminomethyl)piperidin-1-yl)-3-(1H-tetrazol-5-yl)benzene-1,2-disulfonamide]
- IC50 (VIM-1): 1.71 nM
- IC50 (IMP-1): 44.6 nM
- CLB30016 E. coli MITC95 NDM [1]: 1.56 µM
- CL5741 S. marcescens MITC95 IMP [2]: 0.78 µM
- IHMA599644 K. pneumoniae MITC95 VIM [3]: 1.56 µM
- IC50 (VIM-2): 11.6 nM
- MB9799 MITC95 P. aeruginosa uM Efflux Mutant [4]: 1.56 µM
- IC50 (NDM-1): 50.4 nM
- MB9798 MITC95 P. aeruginosa uM Efflux WT [5]: 3.13 µM
- Efflux ratio [5]: 2.00

SMILES: NCC(O)C1CCN(c2ccc(S(=O)(=O)NC[C@H](O)CN)c(S(N)(=O)=O)c2-c2nn[nH]n2)CC1 (stereo partly drawn) [Example 132, 4-(4-(2-amino-1-hydroxyethyl)piperidin-1-yl)-N1-((R)-3-amino-2-hydroxypropyl)-3-(2H-tetrazol-5-yl)benzene-1,2-disulfonamide]
- IC50 (VIM-1): 0.19 nM
- IC50 (IMP-1): 2.49 nM
- CLB30016 E. coli MITC95 NDM [1]: 0.39 µM
- CL5741 S. marcescens MITC95 IMP [2]: 0.78 µM
- IHMA599644 K. pneumoniae MITC95 VIM [3]: 1.56 µM
- IC50 (VIM-2): 4.28 nM
- MB9799 MITC95 P. aeruginosa uM Efflux Mutant [4]: 0.78 µM
- IC50 (NDM-1): 1.34 nM
- MB9798 MITC95 P. aeruginosa uM Efflux WT [5]: 0.78 µM
- Efflux ratio [5]: 1.00
